Experimental findings from patent publication EP1756125B1, “1,1,3,3,3-[…]-1-OXO/THIO-1LAMBDA5,3LAMBDA5-DIPHOSPHAZ-2-ENES, METHOD FOR PRODUCING THEM AND THEIR USE AS AGENTS FOR […] […] […] UREA” (SKW STICK[…] GmbH, priority 2004, dated 2005) are described below.

The test system of the first assay is Urease. Description: Test for urease-inhibiting effect in soil (NH3-N release from urea, closed vessel with ammonia trap). Type of assay: biochemical. The conditions noted are these: Konz. 0,1 % HS-N-bez.; soil at 40 % of maximum water capacity, 50 mg urea; t50 = day after start at which inhibition of urea hydrolysis is still 50 %. The protocol:
30 g auf 40 % der maximalen Wasserkapazität eingestellter Boden werden mit 1 ml Harnstofflösung entsprechend 50 mg Harnstoff versetzt. Gleichzeitig erfolgt die Applikation des Wirkstoffes, vorzugsweise in der Harnstofflösung gelöst. Die Konzentrationsangaben für die einzelnen geprüften Wirkstoffe in der nachfolgenden Tabelle beziehen sich auf die im Test verwendete Menge an Carbamidstickstoff. Der Boden, auf dessen Oberfläche die Harnstofflösung (mit und ohne Wirkstoff) aufgebracht wird, befindet sich in einem luftdicht verschlossenen Gefäß, in das gleichzeitig eine Vorlage eingebracht wird, die den aus dem Harnstoff freigesetzten Ammoniak als Ammonium auffängt. Durch tägliches Überspülen der Vorlage und Analyse der enthaltenen NH4-N-Mengen wird die NH3-N-Freisetzung aus dem Harnstoff bestimmt.
Aus der Summation der Ammonium-Mengen in der Vorlage wird die prozentuale Hemmung der Harnstoff-Hydrolyse in Abhängigkeit von der Zeit berechnet bzw. aus diesen Werten der t50-Wert rechnerisch ermittelt.
Als t50-Wert wird der Zeitpunkt in Tagen nach Versuchsbeginn verstanden, zu dem die Hemmung der Harnstoff-Hydrolyse noch 50 % beträgt.
For the molecule `CCCNP(N)(=NP(N)(N)=S)NCCC` [Verbindung 3, 3,3-Bis(propylamino)-1,1,3,-triamino-1-thio-1λ^5,3λ^5-diphosphaz-2-en], the t50-Wert is 10,4 d.
`CCCCNP(N)(N)=NP(N)(N)=S` [Verbindung 5, 3-Butylamino-1,1,3,3-tetraamino-1-thio-1λ^5,3λ^5-diphosphaz-2-en]: the t50-Wert is reported as 14,5 d.
For `CCCCNP(N)(=NP(N)(N)=O)NCCCC` [Verbindung 2, 3,3-Bis(butylamino)-1,1,3,-triamino-1-oxo-1λ^5,3λ^5-diphosphaz-2-en], the t50-Wert is given as 8,8 d.
Regarding `CCCNP(N)(=NP(N)(N)=O)NCCC` [Verbindung 4, 3,3-Bis(propylamino)-1,1,3,-triamino-1-oxo-1λ^5,3λ^5-diphosphaz-2-en], the t50-Wert is listed as 9,6 d.
Turning to `CCCCNP(N)(=NP(N)(N)=S)NCCCC` [Verbindung 1, 3,3-Bis(butylamino)-1,1,3,-triamino-1-thio-1λ^5,3λ^5-diphosphaz-2-en], the t50-Wert is given as 9,4 d.
Take `CCCNP(N)(N)=NP(N)(N)=S` [Verbindung 6, 3-Propylamino-1,1,3,3-tetraamino-1-thio-1λ^5,3λ^5-diphosphaz-2-en]: the t50-Wert is reported as 14,2 d.

The same assay, now with this note: Konz. 0,5 % HS-N-bez.; soil at 40 % of maximum water capacity, 50 mg urea; t50 = day after start at which inhibition of urea hydrolysis is still 50 %.
For `CCN(CC)P(N)(N)=NP(N)(N)=S` [Verbindung 7, 3-Diethylamino-1,1,3,3-tetraamino-1-thio-1λ^5,3λ^5-diphosphaz-2-en], the t50-Wert was 7,9 d.
